Experimental data taken from patent US20100099561A1, “HETEROBICYCLIC ALKYLTHIO-BRIDGED ISOXAZOLINES” (E.I. DU PONT DE NEMOURS AND COMPANY, priority 2008, published 2010).

Key:
Type in all cases: in vivo
[1] = tested on: giant foxtail (Setaria faberi); assay: Test A postemergence, giant foxtail; conditions: 0 to 100 scale (0 no effect, 100 complete control)
Description: (§1) Seeds of barnyardgrass (Echinochloa crus-galli), large crabgrass (Digitaria sanguinalis), giant foxtail (Setaria faberi), morningglory (Ipomoea spp.), pigweed (Amaranthus retroflexus), velvetleaf (Abutilon theophrasti), wheat (Triticum aestivum), and corn (Zea mays) were planted into a blend of loam soil and sand and treated preemergence with a directed soil spray using test chemicals formulated in a non-phytotoxic solvent mixture which included a surfactant. At the same time these species were also treated with postemergence applications of test compounds formulated in the same manner. Plants ranged in height from two to ten cm and were in the one- to two-leaf stage for the postemergence treatment. Treated plants and untreated controls were maintained in a greenhouse for approximately ten days, after which time all treated plants were compared to untreated controls and visually evaluated for injury. Plant response ratings, summarized in Table A, are based on a 0 to 100 scale where 0 is no effect and 100 is complete control. A dash (-) response means no test result.

corn (Zea mays) [2] = assay: Test A postemergence, corn; conditions: 0 to 100 scale (0 no effect, 100 complete control)
Description: as §1

[3] = tested on: large crabgrass (Digitaria sanguinalis); assay: Test A preemergence, large crabgrass; conditions: 0 to 100 scale (0 no effect, 100 complete control)
Description: as §1

[4] = tested on: morningglory (Ipomoea spp.); assay: Test A postemergence, morningglory; conditions: 0 to 100 scale (0 no effect, 100 complete control)
Description: as §1

[5] = tested on: pigweed (Amaranthus retroflexus); assay: Test A postemergence, pigweed; conditions: 0 to 100 scale (0 no effect, 100 complete control)
Description: as §1

[6] = tested on: giant foxtail (Setaria faberi); assay: Test A preemergence, giant foxtail; conditions: 0 to 100 scale (0 no effect, 100 complete control)
Description: as §1

[7] = tested on: wheat (Triticum aestivum); assay: Test A preemergence, wheat; conditions: 0 to 100 scale (0 no effect, 100 complete control)
Description: as §1

[8] = tested on: pigweed (Amaranthus retroflexus); assay: Test A preemergence, pigweed; conditions: 0 to 100 scale (0 no effect, 100 complete control)
Description: as §1

[9] = tested on: velvetleaf (Abutilon theophrasti); assay: Test A postemergence, velvetleaf; conditions: 0 to 100 scale (0 no effect, 100 complete control)
Description: as §1

[10] = tested on: barnyardgrass (Echinochloa crus-galli); assay: Test B flooded paddy test, barnyardgrass; conditions: Flood
Description: (§2) Plant species in the flooded paddy test consisted of rice (Oryza sativa), umbrella sedge (Cyperus difformis), ducksalad (Heteranthera limosa) and barnyardgrass (Echinochloa crus-galli) grown to the 2-leaf stage for testing. At time of treatment, test pots were flooded to 3 cm above the soil surface, treated by application of test compounds directly to the paddy water, and then maintained at that water depth for the duration of the test. Treated plants and controls were maintained in a greenhouse for 13 to 15 days, after which time all species were compared to controls and visually evaluated. Plant response ratings, summarized in Table B, are based on a scale of 0 to 100 where 0 is no effect and 100 is complete control. A dash (-) response means no test result.

[11] = tested on: wheat (Triticum aestivum); assay: Test A postemergence, wheat; conditions: 0 to 100 scale (0 no effect, 100 complete control)
Description: as §1

[12] = tested on: morningglory (Ipomoea spp.); assay: Test A preemergence, morningglory; conditions: 0 to 100 scale (0 no effect, 100 complete control)
Description: as §1

corn (Zea mays) [13] = assay: Test A preemergence, corn; conditions: 0 to 100 scale (0 no effect, 100 complete control)
Description: as §1

[14] = tested on: barnyardgrass (Echinochloa crus-galli); assay: Test A postemergence, barnyardgrass; conditions: 0 to 100 scale (0 no effect, 100 complete control)
Description: as §1

[15] = tested on: large crabgrass (Digitaria sanguinalis); assay: Test A postemergence, large crabgrass; conditions: 0 to 100 scale (0 no effect, 100 complete control)
Description: as §1

[16] = tested on: umbrella sedge (Cyperus difformis); assay: Test B flooded paddy test, umbrella sedge; conditions: Flood, scale 0 to 100
Description: as §2

rice (Oryza sativa) = assay: Test B flooded paddy test, rice; conditions: Flood, scale 0 to 100
Description: as §2

[17] = tested on: velvetleaf (Abutilon theophrasti); assay: Test A preemergence, velvetleaf; conditions: 0 to 100 scale (0 no effect, 100 complete control)
Description: as §1

[18] = tested on: barnyardgrass (Echinochloa crus-galli); assay: Test A preemergence, barnyardgrass; conditions: 0 to 100 scale (0 no effect, 100 complete control)
Description: as §1

[19] = tested on: ducksalad (Heteranthera limosa); assay: Test B flooded paddy test, ducksalad; conditions: Flood, scale 0 to 100
Description: as §2

CC1(C)CC([S+]([O-])Cc2c(C(F)(F)Cl)nc3n(c2=O)CCCC3)=NO1 (stereo not drawn) [Compound 32]
80: Plant response rating, Crabgrass, Large ([3]; 500 g ai/ha) | Plant response rating, Foxtail, Giant ([6]; 500 g ai/ha)
10: Plant response rating, Velvetleaf ([9]; 500 g ai/ha) | Plant response rating, Barnyardgrass ([14]; 125 g ai/ha) | Plant response rating, Crabgrass, Large ([15]; 125 g ai/ha)
0: Plant response rating, Foxtail, Giant ([1]; 125 g ai/ha) | Plant response rating, Corn (corn (Zea mays) [2]; 125 g ai/ha) | Plant response rating, Corn (corn (Zea mays) [2]; 500 g ai/ha) | Plant response rating, Pigweed ([5]; 125 g ai/ha) | Plant response rating, Wheat ([7]; 125 g ai/ha) | Plant response rating, Wheat ([7]; 500 g ai/ha) | Plant response rating, Pigweed ([8]; 125 g ai/ha) | Plant response rating, Pigweed ([8]; 500 g ai/ha) | Plant response rating, Velvetleaf ([9]; 125 g ai/ha) | Plant response rating, Barnyardgrass ([10]; 31 g ai/ha, scale 0 to 100) | Plant response rating, Barnyardgrass ([10]; 125 g ai/ha, scale 0 to 100) | Plant response rating, Wheat ([11]; 125 g ai/ha) | Plant response rating, Wheat ([11]; 500 g ai/ha) | Plant response rating, Morningglory ([12]; 125 g ai/ha) | Plant response rating, Morningglory ([12]; 500 g ai/ha) | Plant response rating, Corn (corn (Zea mays) [13]; 125 g ai/ha) | Plant response rating, Corn (corn (Zea mays) [13]; 500 g ai/ha) | Plant response rating, Sedge, Umbrella ([16]; 31 g ai/ha) | Plant response rating, Sedge, Umbrella ([16]; 125 g ai/ha) | Plant response rating, Rice (rice (Oryza sativa); 31 g ai/ha) | Plant response rating, Rice (rice (Oryza sativa); 125 g ai/ha) | Plant response rating, Velvetleaf ([17]; 125 g ai/ha) | Plant response rating, Velvetleaf ([17]; 500 g ai/ha) | Plant response rating, Ducksalad ([19]; 31 g ai/ha) | Plant response rating, Ducksalad ([19]; 125 g ai/ha)
50: Plant response rating, Foxtail, Giant ([1]; 500 g ai/ha) | Plant response rating, Crabgrass, Large ([3]; 125 g ai/ha) | Plant response rating, Morningglory ([4]; 500 g ai/ha)
20: Plant response rating, Barnyardgrass ([18]; 125 g ai/ha)
40: Plant response rating, Morningglory ([4]; 125 g ai/ha) | Plant response rating, Barnyardgrass ([14]; 500 g ai/ha) | Plant response rating, Crabgrass, Large ([15]; 500 g ai/ha)
30: Plant response rating, Pigweed ([5]; 500 g ai/ha) | Plant response rating, Foxtail, Giant ([6]; 125 g ai/ha)
70: Plant response rating, Barnyardgrass ([18]; 500 g ai/ha)

CC1(C)CC([S+]([O-])Cc2c(C(F)(F)C(F)(F)F)nc3n(c2=O)CCS3)=NO1 (stereo not drawn) [Compound 41]
0: Plant response rating, Corn (corn (Zea mays) [2]; 125 g ai/ha) | Plant response rating, Crabgrass, Large ([3]; 125 g ai/ha) | Plant response rating, Morningglory ([4]; 125 g ai/ha) | Plant response rating, Pigweed ([5]; 125 g ai/ha) | Plant response rating, Pigweed ([5]; 500 g ai/ha) | Plant response rating, Foxtail, Giant ([6]; 125 g ai/ha) | Plant response rating, Wheat ([7]; 125 g ai/ha) | Plant response rating, Wheat ([7]; 500 g ai/ha) | Plant response rating, Pigweed ([8]; 125 g ai/ha) | Plant response rating, Pigweed ([8]; 500 g ai/ha) | Plant response rating, Velvetleaf ([9]; 125 g ai/ha) | Plant response rating, Velvetleaf ([9]; 500 g ai/ha) | Plant response rating, Barnyardgrass ([10]; 31 g ai/ha, scale 0 to 100) | Plant response rating, Barnyardgrass ([10]; 62 g ai/ha, scale 0 to 100) | Plant response rating, Barnyardgrass ([10]; 125 g ai/ha, scale 0 to 100) | Plant response rating, Barnyardgrass ([10]; 250 g ai/ha, scale 0 to 100 (0 no effect, 100 complete control)) | Plant response rating, Wheat ([11]; 125 g ai/ha) | Plant response rating, Morningglory ([12]; 500 g ai/ha) | Plant response rating, Corn (corn (Zea mays) [13]; 125 g ai/ha) | Plant response rating, Corn (corn (Zea mays) [13]; 500 g ai/ha) | Plant response rating, Crabgrass, Large ([15]; 125 g ai/ha) | Plant response rating, Sedge, Umbrella ([16]; 31 g ai/ha) | Plant response rating, Sedge, Umbrella ([16]; 62 g ai/ha) | Plant response rating, Sedge, Umbrella ([16]; 125 g ai/ha) | Plant response rating, Sedge, Umbrella ([16]; 250 g ai/ha) | Plant response rating, Rice (rice (Oryza sativa); 31 g ai/ha) | Plant response rating, Rice (rice (Oryza sativa); 62 g ai/ha) | Plant response rating, Rice (rice (Oryza sativa); 125 g ai/ha) | Plant response rating, Rice (rice (Oryza sativa); 250 g ai/ha) | Plant response rating, Velvetleaf ([17]; 125 g ai/ha) | Plant response rating, Velvetleaf ([17]; 500 g ai/ha) | Plant response rating, Barnyardgrass ([18]; 125 g ai/ha) | Plant response rating, Ducksalad ([19]; 31 g ai/ha) | Plant response rating, Ducksalad ([19]; 62 g ai/ha) | Plant response rating, Ducksalad ([19]; 125 g ai/ha) | Plant response rating, Ducksalad ([19]; 250 g ai/ha)
60: Plant response rating, Foxtail, Giant ([1]; 500 g ai/ha) | Plant response rating, Barnyardgrass ([18]; 500 g ai/ha)
50: Plant response rating, Crabgrass, Large ([15]; 500 g ai/ha)
40: Plant response rating, Corn (corn (Zea mays) [2]; 500 g ai/ha) | Plant response rating, Wheat ([11]; 500 g ai/ha)
80: Plant response rating, Crabgrass, Large ([3]; 500 g ai/ha) | Plant response rating, Foxtail, Giant ([6]; 500 g ai/ha)
70: Plant response rating, Barnyardgrass ([14]; 500 g ai/ha)
10: Plant response rating, Foxtail, Giant ([1]; 125 g ai/ha) | Plant response rating, Morningglory ([4]; 500 g ai/ha)
30: Plant response rating, Barnyardgrass ([14]; 125 g ai/ha)
